Source: PubChem BioAssay (NCI)
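1) Cells in 96-well plates. 2) Compound, 48 h, 5 concentrations. 3) Linear interpolation between surrounding doses. 4) Unreached endpoint = highest concentration. The concentration for 50% growth inhibition is given as GI50. TGI denotes the concentration required for complete inhibition of growth.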

What was measured:
Assay in all cases: growth of human tumour cells (NCI), 48 h
HCT-116 colon = tested on: HCT-116 colon
HCC-2998 colon = tested on: HCC-2998 colon
MALME-3M melanoma = tested on: MALME-3M melanoma
UO-31 renal = tested on: UO-31 renal
SK-MEL-2 melanoma = tested on: SK-MEL-2 melanoma
RXF 393 renal = tested on: RXF 393 renal
HOP-92 NSCLC = tested on: HOP-92 NSCLC
TK-10 renal = tested on: TK-10 renal
T-47D breast = tested on: T-47D breast
COLO 205 colon = tested on: COLO 205 colon

Structure (SMILES) | GI50 (HCT-116 colon) | TGI (HCT-116 colon) | GI50 (HCC-2998 colon) | TGI (HCC-2998 colon) | GI50 (MALME-3M melanoma) | TGI (MALME-3M melanoma) | GI50 (UO-31 renal) | TGI (UO-31 renal) | GI50 (SK-MEL-2 melanoma) | TGI (SK-MEL-2 melanoma) | GI50 (RXF 393 renal) | TGI (RXF 393 renal) | GI50 (HOP-92 NSCLC) | TGI (HOP-92 NSCLC) | GI50 (TK-10 renal) | TGI (TK-10 renal) | GI50 (T-47D breast) | TGI (T-47D breast) | GI50 (COLO 205 colon) | TGI (COLO 205 colon)
CC(=O)NC(CCc1ccc(Cl)c(Cl)c1)c1cccc(O)c(=O)c1 (centres undefined) | 0.315 µM | 15.2 µM | 1.47 µM | 13.9 µM | 1.45 µM | 7.12 µM | 0.109 µM | 2.2 µM | 2.8 µM | 17.1 µM | 0.722 µM | 14.9 µM | 1.93 µM | 15.7 µM | 0.864 µM | > 100 µM | 1.1 µM | 38.6 µM | 0.363 µM | 18.6 µM
CN1CCC(=C(c2ccc(Cl)cc2)c2ccccn2)CC1 | 66.5 µM | > 100 µM | > 100 µM | > 100 µM | 40.9 µM | > 100 µM | 18.5 µM | > 100 µM | > 100 µM | > 100 µM | 54.5 µM | > 100 µM | 16.7 µM | > 100 µM | > 100 µM | > 100 µM | > 100 µM | > 100 µM | 31.7 µM | > 100 µM
CCN(CC)Cc1cc(Nc2ccnc3ccc(OC)cc23)ccc1O | 2.62 µM | 15 µM | 2.35 µM | 7.1 µM | 3.85 µM | 15.7 µM | 1.84 µM | 5.96 µM | 2.94 µM | 5.5 µM | 2.79 µM | 10.9 µM | 2.04 µM | 7.13 µM | 3.1 µM | 8.43 µM | 5.69 µM | 44.7 µM | 1.63 µM | 3.67 µM
Oc1ccc(/C=N/NC(=S)Nc2ccccc2)nc1 | 1.42 µM | > 100 µM | 4.09 µM | > 100 µM | 2.19 µM | 30.6 µM | 0.661 µM | 16.8 µM | 1.54 µM | 44.1 µM | 0.667 µM | 4.91 µM | 0.439 µM | 6.92 µM | 4.18 µM | > 100 µM | 1.54 µM | > 100 µM | 3.31 µM | > 100 µM
N#C/C(=C\c1ccc(O)c(O)c1)C(=O)NCc1cccc(C(F)(F)F)c1 | 3.79 µM | 17.4 µM | 10.3 µM | 22.2 µM | 2.03 µM | 25.2 µM | 11.8 µM | 73.9 µM | 0.115 µM | 2.98 µM | 17.3 µM | 84.5 µM | 3.2 µM | 26.8 µM | 1.31 µM | 6.43 µM | 13.3 µM | 84.5 µM | 24.4 µM | 76.6 µM
Cc1c(Br)c(Br)c2c3c1nc(N1CCNCC1)n3CCC2 | 1.73 µM | 3.19 µM | 1.81 µM | 3.51 µM | 1.85 µM | 3.41 µM | 1.54 µM | 2.91 µM | 1.95 µM | 4.06 µM | 1.7 µM | 3.41 µM | 0.0744 µM | 1.12 µM | 1.56 µM | 3.12 µM | 2.35 µM | 6.36 µM | 1.86 µM | 3.63 µM
COc1ccc(-c2cc(-c3ccc(Cl)cc3)nc(SCCCC(=O)NO)n2)cc1OC | 0.433 µM | > 100 µM | 1.5 µM | 3.05 µM | 1.6 µM | 5.64 µM | 0.277 µM | 1.09 µM | 2.9 µM | 10.8 µM | 0.417 µM | 1.66 µM | 1.76 µM | 5.33 µM | 0.537 µM | 8.28 µM | 1.88 µM | 18.1 µM | 1.73 µM | 5.06 µM
CCNCCS(=O)(=O)NC[C@@]1(c2ccccc2)SC(NC(=O)C(C)(C)C)=NN1C(=O)C(C)(C)C | < 0.01 µM | > 100 µM | < 0.01 µM | > 51.2 µM | 10.6 µM | 30.2 µM | 18.8 µM | > 100 µM | < 0.01 µM | 28.4 µM | < 0.0223 µM | > 62.2 µM |  | > 82.1 µM | 19.3 µM | > 100 µM | < 0.01 µM | > 100 µM | < 0.01 µM | 12.1 µM
O=C(NNC1=NS(=O)(=O)c2ccccc2N1c1ccccc1)c1cnccn1 | > 100 µM | > 100 µM | > 100 µM | > 100 µM | > 100 µM | > 100 µM | 67.4 µM | > 100 µM | > 100 µM | > 100 µM | > 100 µM | > 100 µM | > 100 µM | > 100 µM | > 100 µM | > 100 µM | > 100 µM | > 100 µM | > 100 µM | > 100 µM
CC(C)(Oc1cccc(N2CCC[C@@H](C(=O)N(Cc3ccc(-c4cn[nH]c4)cc3)C3CC3)C2)c1)C(=O)N1CCNCC1 | 12.6 µM | 27.8 µM | 3.06 µM | 10.7 µM | 11.8 µM | 24.5 µM | 12.1 µM | 26.8 µM | 14.3 µM | 28 µM | 1.85 µM | 8.26 µM | 9.9 µM | 23.8 µM | 14.8 µM | 28.4 µM | 12.6 µM | 34.3 µM | 5.91 µM | 20.1 µM
Cc1ccc2c(-c3ccnc(Nc4cccc(C(F)(F)F)c4)n3)c(-c3ccccc3)nn2n1 | 4.32 µM | > 12.2 µM | 5.99 µM | 16.1 µM | > 16.4 µM | > 22.8 µM | 1.16 µM | > 25 µM | 6.28 µM | 14.3 µM | 2.95 µM | 8.57 µM | > 25 µM | > 25 µM | 3.57 µM | 11.4 µM | 6.95 µM | > 23.7 µM | 4.04 µM | > 25 µM
N#CC(Cl)CS(=O)(=O)c1ccccc1 (centres undefined) |  | 12.2 µM |  | 29.4 µM |  | 4.54 µM |  | 33.5 µM |  | 33 µM |  | 6.31 µM |  | 4.1 µM |  | 6.85 µM |  | 6.06 µM |  | 3.8 µM
Cc1cc(NS(=O)(=O)c2ccc(-c3cnc(C4CC4)o3)cc2)ccc1Cl | 0.264 µM | 13.4 µM | 1.23 µM | 11.7 µM | 12.1 µM | 26.5 µM | 0.835 µM | 12.5 µM | 0.445 µM | 20.3 µM | 0.173 µM | 3.13 µM | 0.472 µM | 10.1 µM | 1.11 µM | 16 µM | 0.323 µM | 23.3 µM | 0.305 µM | 5.8 µM
CCc1nc(N)nc(N)c1-c1ccc(N2CCNCC2)c([N+](=O)[O-])c1 |  | > 100 µM |  | 58.8 µM |  | 37.3 µM |  | > 100 µM |  | > 90.5 µM |  | > 100 µM |  | > 100 µM |  | > 100 µM |  | > 100 µM |  | 40.5 µM
O=C(Nc1nc2ccc(OC(F)(F)F)cc2s1)c1ccc(F)cc1 | 2.98 µM | 10.1 µM | 3.91 µM | > 100 µM | 2.93 µM | 8.06 µM | 3.44 µM | > 100 µM | 3.08 µM | 7.39 µM | 2.68 µM | 13.7 µM | 3.91 µM | 8.35 µM | 4.06 µM | > 100 µM | 2.64 µM | 9.78 µM | 2.11 µM | 4.11 µM
COc1ccc(/C=C/C(=O)C(=O)/C=C/c2ccc(OC)c(OC)c2)cc1OC | 0.319 µM | 1.33 µM | 1.72 µM | 3.21 µM | 5.77 µM | 78.8 µM | 1.63 µM | 3.41 µM | 30.6 µM | > 100 µM | 1.46 µM | 3.04 µM | 15.1 µM | 82.8 µM | 3.83 µM | 25 µM | 2.26 µM | > 100 µM | 1.9 µM | 4.95 µM
C=C(CC)C(=O)c1ccc(OCC(=O)O)c(Cl)c1Cl |  | > 55.1 µM |  | 35.4 µM |  | 31.7 µM |  | 34.3 µM |  | 33.2 µM |  | 34.2 µM |  | 25.2 µM |  | 30.2 µM |  | 27.6 µM |  | 33.1 µM
COC(=O)NC1=Nc2ccccc2C(=O)NN1 |  | > 100 µM |  | > 100 µM |  | > 100 µM |  | > 100 µM |  | > 100 µM |  | > 100 µM |  | > 100 µM |  | > 100 µM |  | > 100 µM |  | > 100 µM
